# Entries after “also recorded” stand apart in the source; their conditions may differ. Where two headings read alike, the source gives them in different places.
# What was measured:
# [1] = system: Isogenic HCT-116 colon cancer cell lines; test: cells; assay type: cell-based; conditions: Homo sapiens, cell growth;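 further: cells grown in 96-well plates in McCoy's 5A medium with 10% FBS, exposed to compound for 4 days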
# Procedure: Cells were seeded in 96-well flat bottom cell culture plates at a density of 2−3×10^3 cells/well with compounds and incubated for 4 days.
# [2] = system: cancer cell lines with wild-type p53 / mutated or deleted p53 (ATCC); test: Cell growth assay (WST-8), other cancer cell lines; assay type: cell-based; conditions: Homo sapiens
# [3] = In vitro microsomal stability, rat; assay type: in vitro ADME
# [4] = In vitro microsomal stability, human; assay type: in vitro ADME
# [5] = Pharmacokinetic studies in rats; assay type: in vivo, rat
# Procedure: Pharmacokinetic studies on MDM2 inhibitors were carried out in rat. For comparison, the MDM2 inhibitor, AT-219, was also studied.
# SJSA-1 xenograft tumors = test: In vivo efficacy, SJSA-1 xenograft model (tumor volume); set-up: species or system C.B-17 SCID mice; conditions: for % Tumor Growth Inhib. T/C Control 750 mm^3 D29: Exp. No. 3, SJSA-1 xenograft
# Procedure: SJSA-1 tumor cells were harvested with Trypsin (0.05%)-EDTA (0.53 mM) (GIBCO™, Invitrogen Corp.), growth medium added and cells placed on ice. A cell sample was mixed 1:1 with Trypan Blue (GIBCO™, Invitrogen Corp.) and counted on a hemocytometer to determine the number of live/dead cells. Cells were washed once with 1×PBS (GIBCO™, Invitrogen Corp.) and resuspended in PBS. For Matrigel injections, after washing in PBS, cells are resuspended in an ice cold mixture of 1:1 PBS and Matrigel (BD Biosciences, Invitrogen Corp.) for a final Matrigel protein concentration of 5 mg/ml. SJSA-1 tumors were inoculated into C.B-17 SCID mice at 5×10^6 cells in 0.1 ml with Matrigel. Cells were injected s.c. into the flank region of each mouse using a 27 gauge needle.
# The size of tumors growing in the mice was measured in two dimensions using calipers. Tumor volume (mm^3)=(A×B2)/2 where A and B are the tumor length and width (in mm), respectively. During treatment, tumor volume and body weight was measured three times a week. […] Mice were kept for an additional 60 days for further observation of tumor growth and toxicity.
# [6] = Animal weight in SJSA-1 xenograft studies; assay type: in vivo, C.B-17 SCID mice; conditions: SJSA-1 xenograft mice
# Procedure: The size of tumors growing in the mice was measured in two dimensions using calipers. Tumor volume (mm^3)=(A×B2)/2 where A and B are the tumor length and width (in mm), respectively. During treatment, tumor volume and body weight was measured three times a week. After the treatment was stopped, tumor volume (FIGS. 7, 9, 11, and 36) and body weight (FIGS. 8, 10, 12, and 37) was measured at least once a week. Mice were kept for an additional 60 days for further observation of tumor growth and toxicity.
# Before treatment began, tumors were allowed to grow to 60-140 mm^3 in volume, at which point the blood vessel supplies to the tumor should have been established. Mice with tumors within acceptable size range were randomized into treatment groups of 8 mice for experimental compounds and 10 mice for the Control group. Experimental compounds were given orally, once per day for 2-3 weeks. The Control group received vehicle alone (10% PEG 400: 3% Cremophor: 87% PBS).
compound,measurement,setting,value
CC(C)(C)C[C@H]1N[C@@H](C(=O)NC2CCC(O)CC2)[C@H](c2cccc(Cl)c2F)[C@@]12C(=O)Nc1cc(Cl)ccc12 (stereo partly shown) [MI-773],IC50,"[1]; HCT-116, read-out: HCT-116 (p53-/-) IC50, Table 19A, HCT-116 p53-/-",> 10 µM
same,IC50,"[1]; HCT-116, read-out: HCT-116 (p53 wild-type) IC50, Table 19A, HCT-116 p53 wild-type",< 1 µM
same,IC50,"[2]; LNCaP, read-out: LNCAP (p53 wild-type) IC50",< 1000 nM
same,IC50,"[2]; PC-3, read-out: PC-3 (deleted p53) IC50",> 10000 nM
same,IC50,"[2]; SJSA-1, read-out: SJSA-1 (p53 wild-type) IC50",< 1000 nM
same,% of compound remaining when incubated in rat liver microsomes with NADPH,[3]; 0 min,100.00%
same,% of compound remaining when incubated in rat liver microsomes with NADPH,[3]; 5 min,81.32%
same,% of compound remaining when incubated in rat liver microsomes with NADPH,[3]; 10 min,60.00%
same,% of compound remaining when incubated in rat liver microsomes with NADPH,[3]; 15 min,56.58%
same,% of compound remaining when incubated in rat liver microsomes with NADPH,[3]; 30 min,46.11%
same,% of compound remaining when incubated in rat liver microsomes with NADPH,[3]; 45 min,41.18%
same,% of compound remaining when incubated in rat liver microsomes with NADPH,[3]; 60 min,33.26%
same,half-life,"[3]; rat, liver microsomes, rat liver microsomes with NADPH",17.3 min
same,microsomal stability (in words),[4]; human liver microsomes,more stable than MI-219
same,% of compound remaining when incubated in human liver microsomes with NADPH,"[4]; human liver microsomes, 0 min",100.00%
same,% of compound remaining when incubated in human liver microsomes with NADPH,"[4]; human liver microsomes, 5 min",83.70%
same,% of compound remaining when incubated in human liver microsomes with NADPH,"[4]; human liver microsomes, 10 min",82.97%
same,% of compound remaining when incubated in human liver microsomes with NADPH,"[4]; human liver microsomes, 15 min",69.38%
same,% of compound remaining when incubated in human liver microsomes with NADPH,"[4]; human liver microsomes, 30 min",52.36%
same,% of compound remaining when incubated in human liver microsomes with NADPH,"[4]; human liver microsomes, 45 min",42.57%
same,% of compound remaining when incubated in human liver microsomes with NADPH,"[4]; human liver microsomes, 60 min",28.77%
same,half-life,"[4]; human, liver microsomes, human liver microsomes with NADPH",31.5 min
same,oral bioavailability / oral pharmacokinetics in rats (in words),"[5]; oral dosing, rats",good oral bioavailability; also recorded: high oral bioavailability
same,CLz,"[5]; rat, IV, 5 mg/kg, plasma, parent compound",1.0 L/h/kg
same,Vd,"[5]; rat, plasma, iv, 5 mg/kg, rat, IV, 5 mg/kg, plasma, parent compound, read-out: Vz",3 L/kg
same,pharmacokinetic profile (in words),"[5]; rats, intravenous and oral routes of dosing",improved PK parameters over MI-219
same,% Tumor Growth Inhib. T/C Control 750 mm^3 D24,"SJSA-1 xenograft tumors; Exp. No. 2, SJSA-1 xenograft, PO 100 mg/kg, D24",3.2%
same,% Tumor Growth Inhib. T/C Control 750 mm^3 D29,SJSA-1 xenograft tumors; PO 30 mg/kg,24.3%
same,% Tumor Growth Inhib. T/C Control 750 mm^3 D29,SJSA-1 xenograft tumors; PO 100 mg/kg,1.2%
same,in vivo efficacy (in words),"SJSA-1 xenograft tumors; SJSA-1 xenograft, oral once per day 2-3 weeks",good in vivo efficacy
same,weight loss in the animals (in words),[6],without significant weight loss

# Source: patent US9079913B2, “Spiro-oxindole MDM2 antagonists” (The Regents of the University of Michigan, priority 2009, dated 2015)
